From US20250361297A1, “ANTI- SIGLEC-15 BINDING MOLECULES AND METHODS OF USE” (ADAPTAM THERAPEUTICS, S.L., priority 2024, published 2025)
Where a SMILES comes first, the peptide text is derived from it. [ ]: non-standard residue; d: D form. The star is where a group is joined. Dolaproine = CO[C@@H]([C@@H]1CCCN1)[C@@H](C)C(=O)O; Dil = CC[C@H](C)[C@H](NC)[C@@H](CC(=O)O)OC; X1 = C[C@@H](N*)[C@@H](O)c1ccccc1; NMeV = CN[C@H](C(=O)O)C(C)C

Legend:
human macrophages = assay: Viability of payload-treated human macrophages (Calcein AM / Ethidium Homodimer-1); format: cell-based; details: free payload; 48-hour incubation; calcein-positive, Ethidium Homodimer-1 negative cells
Description: Macrophage differentiation from CD14+ monocytes: Human peripheral blood mononuclear cells (PBMCs) were isolated from blood donors, who provided informed consent, using density gradient centrifugation. Monocytes were then purified from PBMCs utilizing a CD14 selection kit (Stemcell) according to the manufacturer's instructions. The isolated monocytes were differentiated into macrophages by culturing in RPMI 1640 medium supplemented with 10% FBS and 100 ng/mL macrophage colony-stimulating factor (M-CSF) for 5 days.
Viability assay with Calcein AM: To prepare the viability assay with Calcein AM for flow cytometry, 5 μL of Calcein AM (Component A) and 20 μL of Ethidium Homodimer-1 (Component B) was added to 10 mL of DPBS. Cells were centrifuged at 450×G for 5 minutes to remove the culture medium, and 100-200 μL of the staining solution was added directly to the cells and incubated for 30 minutes at room temperature (20-25° C.). After the incubation, cells were centrifuged at 450×G for 5 minutes to remove the supernatant, and resuspended in 150 μL of DPBS. Cells were analyzed by flow cytometry.

[1] = system: osteoclast differentiation; assay: Osteoclast differentiation in vitro (TRACP 5b in culture medium); format: cell-based; details: relative to baseline levels; culture medium at day 7 (FIG. 46)

Compound	loss of cell viability of human macrophages (human macrophages)	effect on osteoclast differentiation (TRACP 5b) [1]
CC[C@H](C)[C@@H]([C@@H](CC(=O)N1CCC[C@H]1[C@H](OC)[C@@H](C)C(=O)N[C@H](C)[C@@H](O)c1ccccc1)OC)N(C)C(=O)[C@@H](NC(=O)[C@@H](NC)C(C)C)C(C)C [MMAE, monomethylauristatin E] (H-[NMeV]V[Dil][Dolaproine]-X1)	at a lower concentration than Exatecan	
denosumab: control that reduced osteoclast differentiation [reference compound]		reduced differentiation
